According to patent US8883782B2, “Spiro-tetracyclic ring compounds as beta-secretase modulators and methods of use” (Amgen Inc., priority 2010, dated 2014):
Where two headings read alike, the source gives them in different places.

Columns and labels:
[1] = target: Beta Secretase enzyme (BACE) (Homo sapiens, UniProt P56817); experiment: In vitro enzymatic BACE FRET (fluorescence resonance energy transfer) assay; type: biochemical; settings: average IC50, enzyme assay; read-out: BACE 1 FRET assay
Chain of Beta Secretase enzyme (BACE) (P56817 46-501, species assumed): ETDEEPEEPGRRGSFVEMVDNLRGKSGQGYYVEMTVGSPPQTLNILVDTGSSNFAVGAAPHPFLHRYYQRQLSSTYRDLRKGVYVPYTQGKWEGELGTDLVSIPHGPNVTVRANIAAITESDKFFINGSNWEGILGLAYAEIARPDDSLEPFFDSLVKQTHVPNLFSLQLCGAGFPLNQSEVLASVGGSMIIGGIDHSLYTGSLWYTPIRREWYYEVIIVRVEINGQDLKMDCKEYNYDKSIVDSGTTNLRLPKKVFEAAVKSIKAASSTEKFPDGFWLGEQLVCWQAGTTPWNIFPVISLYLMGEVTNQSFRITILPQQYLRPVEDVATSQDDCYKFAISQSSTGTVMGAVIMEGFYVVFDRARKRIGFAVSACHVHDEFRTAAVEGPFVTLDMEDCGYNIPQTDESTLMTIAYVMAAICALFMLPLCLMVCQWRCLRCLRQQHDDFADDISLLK
Procedure, shortened: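 Enzyme activity was measured at pH 4.2 (0.05 M acetate, 10% DMSO final, 100 uM genapol) by cleavage of a 50 nM quenched fluorogenic peptide. After one hour, Tris was added to neutralise the pH and fluorescence was recorded.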

[2] = test system: Aβ40 in conditioned medium of cells stably expressing Amyloid Precursor Protein (APP); experiment: In vitro BACE cell-based assay (Aβ40 in conditioned medium, sandwich ELISA); settings: Homo sapiens, read-out: HEK cell assay
Procedure, shortened: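 The sandwich ELISA pairs pAb40 capture (3 h, 4 °C) with 6E10 detection (2 h, 4 °C) and a streptavidin-europium TRF read-out. Supernatants come from APP-expressing cells grown in 10% FBS DMEM.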

[3] = HEK293, average IC50, HEK cells

Row | SMILES | IC50 [1] | IC50 ([2]; HEK293, average IC50) | IC50 [2, 3]
1 | COc1ccc(-c2cc(F)c3c(c2)[C@]2(COC(N)=N2)c2cc(-c4cccnc4F)ccc2O3)nn1 [Example 275, (4S)-4′-fluoro-7′-(2-fluoro-3-pyridinyl)-2′-(6-methoxy-3-pyridazinyl)spiro[1,3-oxazole-4,9′-xanthen]-2-amine] | 0.7 nM | 8 nM | –
2 | CC1(C#Cc2cc3c(cn2)Oc2ccc(-c4cccnc4F)cc2[C@@]32COC(N)=N2)COC1 [Example 405, (5S)-7-(2-fluoro-3-pyridinyl)-3-((3-methyl-3-oxetanyl)ethynyl)spiro[chromeno[2,3-c]pyridine-5,4′-[1,3]oxazol]-2′-amine] | 1.4 nM | – | 11.1 nM
3 | NC1=N[C@@]2(CO1)c1cc(-c3cccnc3F)ccc1Oc1cnc(N3CCC(F)CC3)cc12 [Example 436, (5S)-3-(4-fluoro-1-piperidinyl)-7-(2-fluoro-3-pyridinyl)spiro[chromeno[2,3-c]pyridine-5,4′-[1,3]oxazol]-2′-amine] | 0.6 nM | – | 8 nM
4 | CC(C)(C)COc1cc2c(cn1)Oc1ccc(-c3cccnc3F)cc1C21COC(N)=N1 (stereo not drawn) [Example 102, 7-(2-fluoropyridin-3-yl)-3-(neopentyloxy)-5′H-spiro[chromeno[2,3-c]pyridine-5,4′-oxazol]-2′-amine 2,2,2-trifluoroacetate] | 1.1 nM | – | 26.2 nM
5 | COc1nc(C2=CCCOC2)cc2c1Oc1ccc(-c3cccnc3)cc1[C@@]21COC(N)=N1 [Example 841, (5S)-3-(5,6-dihydro-2H-pyran-3-yl)-1-methoxy-7-(3-pyridinyl)spiro[chromeno[2,3-c]pyridine-5,4′-[1,3]oxazol]-2′-amine] | 1.2 nM | 6 nM | –
6 | NC1=N[C@@]2(CO1)c1cc(-c3cccc(Cl)c3)ccc1Oc1cnc(-c3ccc(F)c(F)c3)cc12 [Example 550, (5S)-7-(3-chlorophenyl)-3-(3,4-difluorophenyl)spiro[chromeno[2,3-c]pyridine-5,4′-[1,3]oxazol]-2′-amine] | 0.5 nM | – | 127 nM
7 | COc1cc(F)c2c(c1)[C@]1(CSC(N)=N1)c1cc(-c3cccnc3F)ccc1O2 [Example 608, (4S)-4′-fluoro-7′-(2-fluoro-3-pyridinyl)-2′-methoxyspiro[1,3-thiazole-4,9′-xanthen]-2-amine] | 3.6 nM | – | 162 nM
8 | Cc1cnccc1-c1cc2c(cn1)Oc1ccc(-c3cccnc3F)cc1[C@@]21COC(N)=N1 [Example 246, (5S)-7-(2-fluoro-3-pyridinyl)-3-(3-methyl-4-pyridinyl)spiro[chromeno[2,3-c]pyridine-5,4′-[1,3]oxazol]-2′-amine] | 54.2 nM | 291 nM | –
9 | CC1(COc2cc(F)c3c(c2)[C@]2(CSC(N)=N2)c2cc(-c4cccnc4F)c(F)cc2O3)COC1 [Example 885, (4S)-3′,5′-difluoro-2′-(2-fluoro-3-pyridinyl)-7′-((3-methyl-3-oxetanyl)methoxy)spiro[1,3-thiazole-4,9′-xanthen]-2-amine] | 0.4 nM | – | 5 nM
10 | Cn1cc(-c2cc3c(cn2)Oc2ccc(-c4ccc(F)nc4)cc2[C@@]32COC(N)=N2)cn1 [Example 365, (5S)-7-(6-fluoro-3-pyridinyl)-3-(1-methyl-1H-pyrazol-4-yl)spiro[chromeno[2,3-c]pyridine-5,4′-[1,3]oxazol]-2′-amine] | 10.8 nM | 42.4 nM | –
11 | COc1ccc(Cl)c(-c2ccc3c(c2)[C@@]2(COC(N)=N2)c2cc(C4=CCOCC4)cnc2O3)c1 [Example 499, (5S)-7-(2-chloro-5-methoxyphenyl)-3-(3,6-dihydro-2H-pyran-4-yl)spiro[chromeno[2,3-b]pyridine-5,4′-[1,3]oxazol]-2′-amine] | 2.2 nM | – | 22.7 nM
12 | COC(C)(C)COc1cnc2c(c1)[C@]1(COC(N)=N1)c1cc(-c3cccc(C(F)(F)F)c3)ccc1O2 [Example 317, (5S)-3-(2-methoxy-2-methylpropoxy)-7-(3-(trifluoromethyl)phenyl)spiro[chromeno[2,3-b]pyridine-5,4′-[1,3]oxazol]-2′-amine] | 2.5 nM | 23.9 nM | –
